Legend:
[1] = tested on: SNK-6 (IL-2 2.5 ng/mL); assay: percent inhibition of viability; higher = more inhibition; conditions: 72 h
[2] = tested on: normal primary NK cells, pool 1 (3 donors) (IL-2 2.5 ng/mL); assay: as above; conditions: 72 h
[3] = tested on: KAI3 (IL-2 2.5 ng/mL); assay: as above; conditions: 72 h
[4] = tested on: NK-YS (IL-2 2.5 ng/mL); assay: as above; conditions: 72 h
[5] = tested on: NKL (IL-2 2.5 ng/mL); assay: as above; conditions: 72 h
[6] = tested on: DERL-7 (IL-2 2.5 ng/mL); assay: as above; conditions: 72 h
[7] = tested on: NK-92 (IL-2 2.5 ng/mL); assay: as above; conditions: 72 h
[8] = tested on: normal primary NK cells, pool 1 (3 donors), resting (IL-2 0 ng/mL); assay: as above; conditions: 72 h
[9] = tested on: IMC-1 (IL-2 20 ng/mL); assay: as above; conditions: 72 h
[10] = tested on: normal primary NK cells, pool 2 (3 donors) (IL-2 2.5 ng/mL); assay: as above; conditions: 72 h
[11] = tested on: normal primary NK cells, pool 3 (3 donors) (IL-2 2.5 ng/mL); assay: as above; conditions: 72 h
[12] = tested on: YT (IL-2 2.5 ng/mL); assay: as above; conditions: 72 h
[13] = tested on: KHYG-1 (IL-2 2.5 ng/mL); assay: as above; conditions: 72 h
[14] = tested on: normal NK cells expanded with K562-aAPC; assay: drug sensitivity score (DSS) (DSS units); higher = more sensitive; extreme values may be limits of the assay; conditions: 72 h; IL-2 2.5 ng/mL
Procedure: (§1)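 Drug sensitivity and resistance testing on K562-aAPC-expanded normal NK cells: 5 concentrations (10-fold steps over a 10,000-fold range), 72 h at 37 °C, viability by CellTiter-Glo normalised to DMSO and benzethonium chloride controls; DSS from the fitted curve.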

[15] = tested on: SNK-6 (IL-2 2.5 ng/mL); assay: as above; conditions: 72 h
[16] = tested on: normal primary NK cells, pool 1 (3 donors) (IL-2 2.5 ng/mL); assay: as above; conditions: 72 h
[17] = tested on: KAI3 (IL-2 2.5 ng/mL); assay: as above; conditions: 72 h
[18] = tested on: NK-YS (IL-2 2.5 ng/mL); assay: as above; conditions: 72 h
[19] = tested on: NKL (IL-2 2.5 ng/mL); assay: as above; conditions: 72 h
[20] = tested on: DERL-7 (IL-2 2.5 ng/mL); assay: as above; conditions: 72 h
[21] = tested on: NK-92 (IL-2 2.5 ng/mL); assay: as above; conditions: 72 h
[22] = tested on: normal primary NK cells, pool 1 (3 donors), resting (IL-2 0 ng/mL); assay: as above; conditions: 72 h
[23] = tested on: IMC-1 (IL-2 20 ng/mL); assay: as above; conditions: 72 h
[24] = tested on: normal primary NK cells, pool 2 (3 donors) (IL-2 2.5 ng/mL); assay: as above; conditions: 72 h
[25] = tested on: normal primary NK cells, pool 3 (3 donors) (IL-2 2.5 ng/mL); assay: as above; conditions: 72 h
[26] = tested on: YT (IL-2 2.5 ng/mL); assay: as above; conditions: 72 h
[27] = tested on: KHYG-1 (IL-2 2.5 ng/mL); assay: as above; conditions: 72 h
[28] = tested on: normal NK cells expanded with K562-aAPC; assay: percent inhibition of viability; higher = more inhibition; conditions: 72 h, IL-2 2.5 ng/mL
Procedure: as §1

C[C@]12O[C@H](C[C@]1(O)CO)n1c3ccccc3c3c4c(c5c6ccccc6n2c5c31)CNC4=O [Lestaurtinib] (max concentration tested 1000 nM)
percent inhibition of viability [%]
Conditions	0.1 nM	1 nM	10 nM	100 nM	1000 nM
[1]	0.62	7.99	4.23	64.6	73.7
[2]	-8.02	-1.5	10.2	76	75.2
[3]	-0.38	3.13	35.9	86.4	76.4
[4]	-0.02	0.67	6.21	48.1	87.8
[5]	-13.1	-12.9	13.3	71.2	80.6
[6]	6.54	3.47	17.9	85.4	99.6
[7]	-0.14	-6.28	7.06	76.2	82.7
[8]	4.88	-1.99	-2.95	26	18.6
[9]	-6.9	-5.94	-22.2	51.8	98.9
[10]	-7.68	3.05	13.7	69.3	73
[11]	-8.42	-14	-3.13	65.2	72.3
[12]	-2.5	-0.06	3.18	55.1	91.6
[13]	-2.95	1.85	23.3	99.3	98.2
[28]	0.88	0.03	29	96.5	95.9

Conditions	drug sensitivity score
[14]	21.6
[15]	12.5
[16]	15.6
[17]	20.1
[18]	10.6
[19]	14.8
[20]	17.9
[21]	15
[22]	3.91
[23]	11.8
[24]	14.7
[25]	11.9
[26]	11.7
[27]	21.5

CC(C)[C@H](C(=O)Nc1ccc(C(=O)NO)cc1)c1ccccc1 [AR-42] (max concentration tested 10000 nM)
percent inhibition of viability [%]
Conditions	1 nM	10 nM	100 nM	1000 nM	10000 nM
[1]	-0.12	1.49	22.2	88.3	101
[2]	2.55	6.41	6.74	85.7	97.5
[3]	-2.48	10.7	56.8	93.1	109
[4]	-6.36	-5.82	4.66	76.3	108
[5]	-5.13	-4.69	35.2	77.5	107
[6]	-0.01	2.48	-2.69	100	101
[7]	-16.8	-2.43	34.6	104	109
[8]	-9.37	-0.47	13.4	77.4	88.7
[9]	-2.38	-3.46	10.1	92.8	101
[10]	-13.5	-9.96	3.39	82.8	94.9
[11]	-3.19	-1.6	-0.03	82	98.4
[12]	-2.57	0.39	5.64	75.6	108
[13]	-2.7	-4.06	8.15	104	109
[28]	5.85	0.8	9.74	87.9	101

Conditions	drug sensitivity score
[14]	17.3
[15]	18.9
[16]	16.6
[17]	24.6
[18]	14.8
[19]	18.9
[20]	17.7
[21]	22.9
[22]	15.9
[23]	18.3
[24]	15.4
[25]	15
[26]	14.9
[27]	19.4

O=C(O)CC[C@H]1CC[C@@](c2cc(F)ccc2F)(S(=O)(=O)c2ccc(Cl)cc2)CC1 [MK-0752] (max concentration tested 1000 nM)
percent inhibition of viability [%]
Conditions	0.1 nM	1 nM	10 nM	100 nM	1000 nM
[1]	-1.33	10	0.79	21.6	11.5
[2]	1.14	-1.74	-0.83	-10.7	3.87
[3]	-5.58	-3.61	-11.2	-10.3	10.8
[4]	1.77	3.33	4.23	-0.52	12.9
[5]	-5.92	-6.47	1.23	0.27	-0.85
[6]	-0.82	-1.19	-2.01	-1.84	0.38
[7]	-10.8	-16	2.19	-18.6	9.52
[8]	-1.4	-17	-8.36	-13.1	-7.22
[9]	-1.19	-1.62	3.7	1.88	9.87
[10]	-9.74	-4.15	-0.03	-3.82	-3.17
[11]	-11.6	-7.52	0.99	-5.48	3.93
[12]	-5.65	-0.71	-6.38	-14.1	8.32
[13]	2.68	-1.92	2.12	-1.77	2.96
[28]	-3.97	0.91	0.33	10.8	16.2

Conditions	drug sensitivity score
[14]	1.1
[15]	1.21
[16]	0
[17]	0
[18]	0.08
[19]	0
[20]	0
[21]	0
[22]	0
[23]	0
[24]	0
[25]	0
[26]	0
[27]	0

NC(=O)Nc1cc(-c2cccc(F)c2)sc1C(=O)N[C@H]1CCCNC1 [AZD7762] (max concentration tested 1000 nM)
percent inhibition of viability [%]
Conditions	0.1 nM	1 nM	10 nM	100 nM	1000 nM
[1]	1.39	-7.11	6.7	38.1	98.3
[2]	-5.93	12.7	4.94	7.28	38.7
[3]	3.25	1.46	16.1	87.4	101
[4]	-4.78	-5.3	-1.14	32.8	98.5
[5]	-9.43	-12.1	12	71.8	94.4
[6]	0.34	1.83	-2.38	40.2	96.8
[7]	-12.3	2.34	-2.59	33.4	104
[8]	-1.65	27.9	17.6	7.65	15
[9]	-6.23	-1.75	-2.17	-7.04	99
[10]	-6.25	11.4	-7.48	-6.09	39.8
[11]	-4.39	6.88	-1.78	-16.7	27.9
[12]	-5.67	-1.28	2.8	28.1	99.1
[13]	-7.54	-7.13	3.29	100	106
[28]	-1.82	-2.38	-5.7	40.7	73.3

Conditions	drug sensitivity score
[14]	9.03
[15]	10
[16]	3.1
[17]	18
[18]	10.1
[19]	14.9
[20]	10.7
[21]	10.2
[22]	2.58
[23]	4.99
[24]	1.59
[25]	0.69
[26]	9.64
[27]	18.4

From the supplement of paper PMC5908809
